In patent US7122679B2, “Multicyclic compounds and the use thereof” (Cephalon, Inc., priority 2000, dated 2006):

Target: recombinant human PARP (Homo sapiens, UniProt P09874)
Experiment: PARP activity: transfer of radiolabeled ADP-ribose units from [32P]NAD+ to a protein acceptor
Format: biochemical
Settings: Table 3
Experimental: PARP activity was monitored by transfer of radiolabeled ADP-ribose units from [^32P]NAD^+ to a protein acceptor such as histone or PARP itself. […] The reactions were initiated by the addition of 100 μM NAD^+ supplemented with 2 uCi [^32P]NAD^+/mL and maintained at room temperature for 12 minutes. Assays were terminated by the addition of […] and the radiolabeled precipitate was collected on a 96-well filter plate (Millipore, MADP NOB 50), washed with 25% TCA. The amount of acid-insoluble radioactivity, corresponding to polyADP-ribosylated protein, was quantitated in a Wallac MicroBeta scintillation counter.
Single-point inhibition data were calculated by comparing PARP, VEGFR2, or MLK3 activity in the presence of inhibitor to activity in the presence of DMSO only. Inhibition curves for compounds were generated by plotting percent inhibition versus log10 of the concentration of compound. IC50 values were calculated by nonlinear regression using the sigmoidal dose-response (variable slope) equation in GraphPad Prism as follows: y=bottom+(top−bottom)/(1+10^(logIC^50^−x)*Hillslope) where y is the % activity at a given concentration of compound, x is the logarithm of the concentration of compound, bottom is the % inhibition at the lowest compound concentration tested, and top is the % inhibition at the highest compound concentration examined. […]

Chain of recombinant human PARP (P09874 whole entry): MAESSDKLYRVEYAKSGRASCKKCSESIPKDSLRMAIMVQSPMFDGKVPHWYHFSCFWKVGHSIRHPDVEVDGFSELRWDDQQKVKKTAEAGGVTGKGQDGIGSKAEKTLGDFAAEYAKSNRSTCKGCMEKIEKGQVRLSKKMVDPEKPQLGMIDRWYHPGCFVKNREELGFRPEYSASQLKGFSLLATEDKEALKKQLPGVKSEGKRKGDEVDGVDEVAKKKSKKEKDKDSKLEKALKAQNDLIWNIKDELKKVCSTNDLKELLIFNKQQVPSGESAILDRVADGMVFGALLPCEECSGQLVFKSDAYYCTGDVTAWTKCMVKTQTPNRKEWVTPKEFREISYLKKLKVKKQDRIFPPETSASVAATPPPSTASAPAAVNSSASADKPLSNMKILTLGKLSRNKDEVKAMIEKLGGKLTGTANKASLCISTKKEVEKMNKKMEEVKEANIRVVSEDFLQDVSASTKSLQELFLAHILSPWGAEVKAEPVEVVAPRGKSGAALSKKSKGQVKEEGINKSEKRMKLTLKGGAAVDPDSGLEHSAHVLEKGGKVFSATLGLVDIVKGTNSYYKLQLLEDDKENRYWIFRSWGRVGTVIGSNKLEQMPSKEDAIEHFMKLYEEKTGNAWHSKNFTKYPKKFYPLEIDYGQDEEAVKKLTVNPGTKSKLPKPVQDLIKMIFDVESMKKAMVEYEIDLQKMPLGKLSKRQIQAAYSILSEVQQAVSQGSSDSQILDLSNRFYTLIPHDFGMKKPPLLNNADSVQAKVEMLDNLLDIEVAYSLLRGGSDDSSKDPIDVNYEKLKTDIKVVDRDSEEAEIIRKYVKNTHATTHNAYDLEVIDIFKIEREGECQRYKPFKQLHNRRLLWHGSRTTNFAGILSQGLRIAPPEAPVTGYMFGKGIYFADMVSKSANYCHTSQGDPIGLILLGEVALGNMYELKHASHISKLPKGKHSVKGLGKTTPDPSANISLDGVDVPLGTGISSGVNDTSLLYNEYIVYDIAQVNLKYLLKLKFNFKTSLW

IC50: 69 nM
SMILES: NCCCCC(N)C(=O)N1C(=O)c2c3c(c4[nH]c5ccc(Br)cc5c4c2C1=O)CCC3 (stereo not shown) [Compound 6e]
